Data: patent US20090325964A1, “Piperazine Metabotropic Glutamate Receptor 5 (MGLUR5) Negative Allosteric Modulators For Anxiety/Depression” (Wyeth, priority 2008, published 2009)

Target: T1, rat mGluR5 receptor (Rattus norvegicus, UniProt P31424)
T1 construct: expressed in transfected cells; host or cells: HEK-293
Test: [3H]-MPEP displacement binding assay, HEK-293 cell membranes expressing rat mGluR5
Conditions: Biological Activity, Table 2A; for inhibition at 10 µM: @ 10 μM compound, read-out: PCT INHIB (%) @ 10 μM; for Ki: read-out: Median Ki
How it was run: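 Membranes from HEK-293 cells expressing rat mGluR5 (12-25 μg protein), incubated 60 min at room temperature with 4 nM [3H]-MPEP in 50 mM Tris pH 7.5, then filtered. Nonspecific binding defined with 10 μM MPEP.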

T1 sequence (P31424 21-1203): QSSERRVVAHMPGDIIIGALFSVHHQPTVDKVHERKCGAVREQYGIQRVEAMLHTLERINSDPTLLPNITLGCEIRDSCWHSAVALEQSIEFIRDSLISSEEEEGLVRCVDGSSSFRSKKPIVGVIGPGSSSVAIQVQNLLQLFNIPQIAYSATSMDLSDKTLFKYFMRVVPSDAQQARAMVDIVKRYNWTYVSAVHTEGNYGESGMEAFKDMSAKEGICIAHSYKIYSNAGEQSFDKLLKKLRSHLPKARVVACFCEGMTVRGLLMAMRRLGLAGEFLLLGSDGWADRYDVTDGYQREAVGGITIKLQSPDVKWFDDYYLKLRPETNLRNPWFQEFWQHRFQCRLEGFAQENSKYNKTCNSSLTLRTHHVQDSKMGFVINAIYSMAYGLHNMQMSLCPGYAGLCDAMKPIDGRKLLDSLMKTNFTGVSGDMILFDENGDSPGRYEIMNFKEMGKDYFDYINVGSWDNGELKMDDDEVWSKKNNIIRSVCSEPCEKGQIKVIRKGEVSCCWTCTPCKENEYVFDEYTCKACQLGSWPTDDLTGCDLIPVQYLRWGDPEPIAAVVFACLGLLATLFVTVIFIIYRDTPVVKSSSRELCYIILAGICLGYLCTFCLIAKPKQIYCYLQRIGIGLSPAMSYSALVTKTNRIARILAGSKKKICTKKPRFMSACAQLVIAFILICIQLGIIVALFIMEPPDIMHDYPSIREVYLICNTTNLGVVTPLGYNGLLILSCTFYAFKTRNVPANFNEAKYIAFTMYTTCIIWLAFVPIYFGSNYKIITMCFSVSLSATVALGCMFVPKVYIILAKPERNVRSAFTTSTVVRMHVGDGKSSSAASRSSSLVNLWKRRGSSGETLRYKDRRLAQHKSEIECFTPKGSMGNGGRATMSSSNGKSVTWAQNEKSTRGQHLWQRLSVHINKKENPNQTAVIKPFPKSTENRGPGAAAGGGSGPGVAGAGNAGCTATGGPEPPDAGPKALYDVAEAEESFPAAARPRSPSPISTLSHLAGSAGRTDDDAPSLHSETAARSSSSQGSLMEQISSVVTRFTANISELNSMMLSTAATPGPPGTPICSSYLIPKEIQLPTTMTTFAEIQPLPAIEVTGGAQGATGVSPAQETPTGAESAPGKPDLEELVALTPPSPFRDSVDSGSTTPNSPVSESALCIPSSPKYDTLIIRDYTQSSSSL

Row | Structure (SMILES) | inhibition at 10 µM [%] | Ki [nM]
1 | O=C(c1cccc(C#Cc2ccccc2)c1)N1CCN(c2cnccn2)CC1 [Compound 86, 2-{4-[3-(phenylethynyl)benzoyl]piperazin-1-yl}pyrazine] | 85 | –
2 | O=C(c1cncc(C#Cc2ccccc2)c1)N1CCN(c2ccccn2)CC1 [Compound 87, 1-{[5-(phenylethynyl)pyridin-3-yl]carbonyl}-4-pyridin-2-ylpiperazine] | 56 | 3310
3 | O=C(c1ccc(F)c(C#Cc2ccccc2)c1)N1CCN(c2ccccn2)CC1 [Compound 89, 1-[4-fluoro-3-(phenylethynyl)benzoyl]-4-pyridin-2-ylpiperazine] | 51 | 50
4 | Cc1c(C#Cc2ccccc2)cccc1C(=O)N1CCN(c2ccccn2)CC1 [Compound 91, 1-[2-methyl-3-(phenylethynyl)benzoyl]-4-pyridin-2-ylpiperazine] | 18 | –
5 | O=C(c1cccc(C#Cc2cccnc2)c1)N1CCN(c2ccccn2)CC1 [Compound 93, 1-pyridin-2-yl-4-[3-(pyridin-3-ylethynyl)benzoyl]piperazine] | 26 | –
6 | O=C(c1cccc(C#Cc2ccccn2)c1)N1CCN(c2cnccn2)CC1 [Compound 94, 2-{4-[3-(pyridin-2-ylethynyl)benzoyl]piperazin-1-yl}pyrazine] | 79 | 395
7 | N#Cc1ccc(N2CCN(C(=O)c3cccc(C#Cc4ccccn4)c3)CC2)nc1 [Compound 96, 6-{4-[3-(pyridin-2-ylethynyl)benzoyl]piperazin-1-yl}nicotinonitrile] | 50 | 3240
8 | O=C(c1cccc(C#Cc2ccccn2)c1)N1CCN(c2nnn[nH]2)CC1 [Compound 97, 1-[3-(pyridin-2-ylethynyl)benzoyl]-4-(1H-tetrazol-5-yl)piperazine] | 0 | –
9 | CC1CN(c2ccccn2)CCN1C(=O)c1cccc(C#Cc2ccccn2)c1 (stereo not shown) [Compound 98, 2-methyl-4-pyridin-2-yl-1-[3-(pyridin-2-ylethynyl)benzoyl]piperazine] | 72 | 679
10 | O=C(c1cccc(C#Cc2ccccn2)c1)N1CCN(c2ncc(O)cn2)CC1 [Compound 99, 2-{4-[3-(pyridin-2-ylethynyl)benzoyl]piperazin-1-yl}pyrimidin-5-ol] | 64 | 1450
11 | Cc1cc(C)nc(N2CCN(C(=O)c3cccc(C#Cc4ccccn4)c3)CC2)n1 [Compound 100, 4,6-dimethyl-2-{4-[3-(pyridin-2-ethynyl)benzoyl]piperazin-1-yl}pyrimidine] | 55 | 2160
12 | COc1cccnc1N1CCN(C(=O)c2cccc(C#Cc3ccccn3)c2)CC1 [Compound 101, 1-(3-methoxypyridin-2-yl)-4-[3-(pyridin-2-ylethynyl)benzoyl]piperazine] | 52 | 2350
13 | COc1nsnc1N1CCN(C(=O)c2cccc(C#Cc3ccccn3)c2)CC1 [Compound 102, 1-(4-methoxy-1,2,5-thiadiazol-3-yl)-4-[3-(pyridin-2-ylethynyl)benzoyl]piperazine] | 92 | 80
14 | Cc1cnc(C)c(N2CCN(C(=O)c3cccc(C#Cc4ccccn4)c3)CC2)n1 [Compound 103, 2,5-dimethyl-3-{4-[3-(pyridin-2-ylethynyl)benzoyl]piperazin-1-yl}pyrazine] | 16 | –
15 | O=C(c1cccc(C#Cc2ccccn2)c1)N1CCN(c2cncc(Cl)n2)CC1 [Compound 104, 2-chloro-6-{4-[3-(pyridin-2-ylethynyl)benzoyl]piperazin-1-yl}pyrazine] | 71 | 1460
16 | CC1CN(C(=O)c2cccc(C#Cc3ccccn3)c2)CCN1c1ccccn1 (stereo not shown) [Compound 105, 2-methyl-1-pyridin-2-yl-4-[3-(pyridin-2-ylethynyl)benzoyl]piperazine] | 58 | 826
17 | O=C(c1cccc(C#Cc2ccccn2)c1)N1CCN(c2nccc(-c3ccccc3)n2)CC1 [Compound 106, 4-phenyl-2-{4-[3-(pyridin-2-ylethynyl)benzoyl]piperazin-1-yl}pyrimidine] | 86 | 2.19
18 | O=C(c1cccc(C#Cc2ccccc2)c1)N1CCN(c2ccc(C(F)(F)F)cn2)CC1 [Compound 108, 1-[3-(phenylethynyl)benzoyl]-4-[5-(trifluoromethyl)pyridin-2-yl]piperazine] | 0 | –
19 | Cc1cccc(N2CCN(C(=O)c3cccc(C#Cc4ccccc4)c3)CC2)n1 [Compound 110, 1-(6-methylpyridin-2-yl)-4-[3-(phenylethynyl)benzoyl]piperazine] | 68 | 3410
20 | Cc1cc(C)nc(N2CCN(C(=O)c3cccc(C#Cc4ccccc4)c3)CC2)n1 [Compound 111, 4,6-dimethyl-2-{4-[3-(phenylethynyl)benzoyl]piperazin-1-yl}pyrimidine] | 0 | –

Row | Structure (SMILES) | inhibition at 10 µM [%] | Ki [nM]
21 | COc1ccc(C(=O)N2CCN(c3ncccn3)CC2)cc1C#Cc1ccccc1 [Compound 112, 2-{4-[4-methoxy-3-(phenylethynyl)benzoyl]piperazin-1-yl}pyrimidine] | 90 | 62.5
22 | COc1ccc(C(=O)N2CCN(c3ccc(C#N)cn3)CC2)cc1C#Cc1ccccc1 [Compound 113, 6-{4-[4-methoxy-3-(phenylethynyl)benzoyl]piperazin-1-yl}nicotinonitrile] | 81 | 357
23 | COc1ccc(C(=O)N2CCN(c3ccc(C(F)(F)F)cn3)CC2)cc1C#Cc1ccccc1 [Compound 114, 1-[4-methoxy-3-(phenylethynyl)benzoyl]-4-[5-(trifluoromethyl)pyridin-2-yl]piperazine] | 26 | –
24 | COc1ccc(C(=O)N2CCN(c3cc(C)ccn3)CC2)cc1C#Cc1ccccc1 [Compound 115, 1-[4-methoxy-3-(phenylethynyl)benzoyl]-4-(4-methylpyridin-2-yl]piperazine] | 93 | 3.15
25 | COc1ccc(C(=O)N2CCN(c3cccc(C)n3)CC2)cc1C#Cc1ccccc1 [Compound 116, 1-[4-methoxy-3-(phenylethynyl)benzoyl]-4-(6-methylpyridin-2-yl]piperazine] | 77 | 853
26 | COc1ccc(C(=O)N2CCN(c3cccc(C(F)(F)F)n3)CC2)cc1C#Cc1ccccc1 [Compound 117, 1-[4-methoxy-3-(phenylethynyl)benzoyl]-4-[6-(trifluoromethyl)pyridin-2-yl]piperazine] | 35 | –
27 | COc1ccc(C(=O)N2CCN(c3ncccc3C#N)CC2)cc1C#Cc1ccccc1 [Compound 118, 2-{4-[4-methoxy-3-(phenylethynyl)benzoyl]piperazin-1-yl}nicotinonitrile] | 78 | 1760
28 | COc1ccc(C(=O)N2CCN(c3nc(C)cc(C)n3)CC2)cc1C#Cc1ccccc1 [Compound 119, 2-{4-[4-methoxy-3-(phenylethynyl)benzoyl]piperazin-1-yl}-4,6-dimethylpyrimidine] | 35 | –
29 | O=C(c1ccnc(C#Cc2ccccc2)c1)N1CCN(c2ncccn2)CC1 [Compound 120, 2-{4-[2-(phenylethynyl)isonicotinoyl]piperazin-1-yl}pyrimidine] | 49 | 2890
30 | O=C(c1ccnc(C#Cc2ccccc2)c1)N1CCN(c2ccccn2)CC1 [Compound 121, 1-[2-(phenylethynyl)isonicotinoyl]-4-pyridin-2-ylpiperazine] | 72 | 1130
31 | N#Cc1ccc(N2CCN(C(=O)c3ccnc(C#Cc4ccccc4)c3)CC2)nc1 [Compound 122, 6-{4-[2-(phenylethynyl)isonicotinoyl]piperazin-1-yl}nicotinonitrile] | 0 | –
32 | O=C(c1ccnc(C#Cc2ccccc2)c1)N1CCN(c2ccc(C(F)(F)F)cn2)CC1 [Compound 123, 1-[2-(phenylethynyl)isonicotinoyl]-4-[5-(trifluoromethyl)pyridin-2-yl]piperazine] | 0 | –
33 | Cc1ccnc(N2CCN(C(=O)c3ccnc(C#Cc4ccccc4)c3)CC2)c1 [Compound 124, 1-(4-methylpyridin-2-yl)-4-[2-(phenylethynyl)isonicotinoyl]piperazine] | 84 | 338
34 | Cc1cccc(N2CCN(C(=O)c3ccnc(C#Cc4ccccc4)c3)CC2)n1 [Compound 125, 1-(6-methylpyridin-2-yl)-4-[2-(phenylethynyl)isonicotinoyl]piperazine] | 30 | –
35 | O=C(c1ccnc(C#Cc2ccccc2)c1)N1CCN(c2cccc(C(F)(F)F)n2)CC1 [Compound 126, 1-[2-(phenylethynyl)isonicotinoyl]-4-[6-(trifluoromethyl)pyridin-2-yl]piperazine] | 54 | –
36 | O=C(c1ccnc(C#Cc2ccccc2)c1)N1CCN(c2cnccn2)CC1 [Compound 127, 2-{4-[2-(phenylethynyl)isonicotinoyl]piperazin-1-yl}pyrazine] | 36 | –
37 | N#Cc1ccc(N2CCN(C(=O)c3cccc(C#Cc4ccccc4)c3)CC2)nc1 [Compound 128, 6-{4-[3-(phenylethynyl)benzoyl]piperazin-1-yl}nicotinonitrile] | 48 | –
38 | O=C(c1cccc(C#Cc2ccccc2)c1)N1CCN(c2ncccc2C(F)(F)F)CC1 [Compound 129, 1-[3-(phenylethynyl)benzoyl]-4-[3-(trifluoromethyl)pyridin-2-yl]piperazine] | 45 | –
39 | O=C(c1cncc(C#Cc2ccccc2)c1)N1CCN(c2ncccn2)CC1 [Compound 130, 2-(4-{[5-(phenylethynyl)pyridin-3-yl]carbonyl}piperazin-1-yl)pyrimidine] | 47 | –
40 | N#Cc1ccc(N2CCN(C(=O)c3cncc(C#Cc4ccccc4)c3)CC2)nc1 [Compound 131, 6-(4-{[5-(phenylethynyl)pyridin-3-yl]carbonyl}piperazin-1-yl)nicotinonitrile] | 0 | –
